Reference: US8329651B2, “Method for renal disease diagnosis and prognosis using annexin A1 and Rab23 as markers” (National Defense Medical Center, priority 2009, dated 2012)

Test: Adriamycin-induced focal segmental glomerulosclerosis (FSGS) in mice: urine protein, serum creatinine, BUN
Format: in vivo
Settings: 8-week-old BALB/c mice, adriamycin 0.1 mg/per 10 g body weight intravenously, day 15
Procedure: 8-week-old BALB/c mice were injected with adriamycin (0.1 mg/per 10 g body weight) intravenously to induce Focal Segmental Glomerulosclerosis (FSGS). Blood, urine, and kidney tissue samples were collected at days 0, 7, 15, and 20 after injection. More specifically, the blood samples were collected from the retro-orbital venous plexus and the urine samples were collected by gentle abdominal massage. The samples were centrifuged to remove insoluble substances and then stored in liquid nitrogen. When urine proteins are to be measured, the corresponding samples were collected on parafilms. The modified Bradford protein assay was performed to examine urine protein concentration, the picric acid colorimetric kit (Sigma 555-1) was used for detecting creatinine, and an urease assay kit provided by Sigma (640-5) was used for determining the level of blood urea nitrogen (BUN).

## COc1cccc2c1C(=O)c1c(O)c3c(c(O)c1C2=O)C[C@@](O)(C(=O)CO)C[C@@H]3O[C@H]1C[C@H](N)[C@H](O)[C@H](C)O1 [adriamycin]
Control mice 0.48±0.03
  serum creatinine level: 2.02 ± 0.17 mg/dL
Control mice 0.59±0.082
  urine protein level: 16.84 ± 3.13 mg/mL
Control mice 21.85±1.99
  BUN (blood urea nitrogen) level: 71.42 ± 8.09 mg/dL
